Marks after values point to notes of the source that are not given here.
Assays:
Type in all cases: in vivo
[1] = test system: TNBS-induced colitis mice; experiment: TNBS-induced UC (colitis) mouse model; conditions: for Body weight / Colon weight: oral twice daily; for Body weight / Colon weight / Colon scores / Colon indices / Decrease rate of colon specific weight: 7 days; for Colon scores: histopathological score 0-4; for Colon indices: percentage of colon weight to body weight; for Decrease rate of colon specific weight: vs model control group
Procedure: 5% (w/v) TNBS solution was diluted with double-distilled water and mixed with 50% (v/v) ethanol in equal volume to have 1.5% (w/v) TNBS solution. In the model control group, the mice were anesthetized with 1 wt % pentobarbital solution at a dose of 0.05 ml/10 g body weight. After being anesthetized, the mice were administrated with 1.5% (w/v) TNBS solution at a dose of 0.1 ml/mouse by gently inserting stomach perfusion device to about 3 cm depth via anus and arriving at the colon, and the IBD was induced. In the saline group, the saline was gently injected into the colon at a dose of 0.1 ml/mouse. In the normal control group, 50% (v/v) ethanol was gently injected into the colon at a dose of 0.1 ml mouse.
After one week adaptive feeding, all animals were randomly divided into 5 groups according to body weight, 10 mice in one group: the normal control group, the model control group, the andrographolide low-dose group (20 mg/kg/d), the andrographolide high-dose group (40 mg/kg/d) and the positive control group (Sulfasalazine group, 300 mg/kg/d). Two hours after making model, the animals in each treating groups were orally administrated twice daily with the andrographolide and once daily in the positive control group. After successive administration for 7 days, the abdomen was opened 24 hours after the last administration to observe adhesion degree between the colon and other organs. The colon was separated and weighed.
1. Body weight: after making model, body weight was measured every day to observe the change in the animals.
2. Evaluation of inflammation: the abdomen was opened 24 hours after the last administration to observe adhesion degree between the colon and other organs. Every segment of the colon was taken out and weighed to calculate the percentage of the colon weight to body weight, as the colon index. The formula was presented as follows: Decrease rate of colon specific weight=(colon index of the model control group−colon index of the treatment group)/colon index of the model control group×100%
3. Histopathological examination: a part of the colon was taken to prepare the pathological section, and the standard for score was as follows: • 0 score, no inflammatory symptoms; • 1 score, low-grade inflammation with no structure change; • 2 score, low-grade leukocyte infiltration; • 3 score, high-grade leukocyte infiltration, high vascular density, crypt extension, thickened colon wall and superficial ulcer • 4 score, high-grade leukocyte infiltrating exceeding to mucous layer, crypt extension, decrease of goblet cell, high vascular density, thickened colon wall and extensive ulcer
SPSS11.5 software was used for analysis and the data were expressed as x±S. Variance analysis was used for comparison of significant difference among groups.

DSS-induced UC mice = experiment: DSS-induced UC mouse model, disease active index
Description: 4 Dose Designing and Grouping • 4.1 Grouping: quarantine-qualified 84 mice were randomly divided into 6 groups: the model control group, the positive control group, the tested drug low-dose intragastric group, the tested drug high-dose intragastric group, the tested drug low-dose intracolonical group and the tested drug high-dose intracolonical group, 14 mice per group. All animals drank 5% DSS solution daily for consecutive 14 days to establish UC model. Animals were administrated with the drug for treatment on the 2nd day after being given 5% DSS drinking water. • 4.2 Dose: in this study, dose of administration of the mice in all groups was designed on the basis of client's requirements, and the same doses were adopted in both intragastric and intracolonical groups. Animals were not treated in the model control group, the positive control group (mesalazine enteric tablet, 227.5 mg·kg^−1·d^−1), the andrographolide low-dose intragastric group (60 mg·kg^1·d^−1), the andrographolide high-dose intragastric group (180 mg·kg^−1·d^−1), the andrographolide low-dose intracolonical group (60 mg·kg^−1·d^−1) and the andrographolide high-dose intracolonical group (180 mg·kg^−1·d^−1).
5 Method • 5.1 Method of making UC model: all animals drank 5% DSS solution daily for consecutive 14 days. • 5.2 Method of administration: on the 2nd day after modeling, the mice were treated intragastrically or intracolonically with the drug at 1 mL/100 g once a day for consecutive 14 days. • 5.3 Method for sampling in experiment: 2 hours after the last administration, the mice were killed by cervical vertebra dislocation and abdomen was opened to separate the colon. Along mesenteric side, the intestinal lumen was cut and rinsed with 4° C. normal saline and spread on a plastic plate. • 5.4 Method for evaluating disease active index (DAI): the disease active index was assessed at the 7th and 14th day after administration. The method was presented together with the following three parameters: the body weight loss percentages (unchanged BW: 0 score, 1˜5: 1 score, 5˜10: 2 score, 10˜15: 3 score, more than 15: 4 score), stool viscosity (normal stool: 0 score, loosen stool: 2 score, diarrhea: 4 score) and blood stool (normal stool: 0 score, occult blood stool: 2 score and positive blood stool: 4 score). Total score of three parameters was divided by 3 to give the DAI, namely DAI=(BW index score+stool character score+stool blood score)/3.
6 Observation Indices • 6.1 Observation: the general clinical symptoms in the mice were observed daily from the beginning to the end of the experiment, and the stool, mental status and death status were recorded. • 6.2 Body weight: BW was recorded weekly from the beginning to the end of the experiment. • 6.3 Calculation of DAI: DAI was calculated on the 7th and 14th day after administration so as to assess disease activity. • 6.4 The colon mucosal tissue 8˜10 cm away from the anus was sampled, embedded with paraffin and stained with routine HE. Colon mucosal injury was observed by a microscope and histological injury was scored based on the following indices: ulcer inflammatory granuloma, fibrosis and pathological degree.
Data were expressed as mean+standard deviation (x±S). All numerical variables were analyzed with SPSS13.0 software by one-way ANOVA. T-test analysis was used for inter-group comparison.

zebra fish = experiment: Exploration of concentration in zebra fish (toxicity and death); conditions: 0.1 to 500 μg/mL in fish farm water, 30 zebra fishes per concentration
Procedure: Fish farm water of wild-type AB strain zebra fish Crohn's disease model (1 L reverse osmosis water was added with 200 mg instant sea salt with a conductivity of […], pH value of 6.9˜7.2 and hardness of 53.7˜71.6 mg/L CaCO3) was added with the andrographolide in the concentrations of 0 μg/mL, 0.1 μg/mL, 1 μg/mL, 10 μg/mL, 100 μg/mL and 500 μg/mL. At each concentration, 30 zebra fishes were treated, during which death number of the zebra fishes was counted daily and the dead fishes were removed in time. After treatment, the death number of the zebra fishes in each group was analyzed statistically to draw the optimum concentration-effect curve by using JMP software and calculate MNLC. […] As a result, the following four concentrations were selected for efficacy evaluation in Crohn's disease in this study: 50 μg/mL, 100 μg/mL, 250 μg/mL and 500 μg/mL.

[2] = andrographolide high-dose 40 mg/kg/d
[3] = andrographolide low-dose 20 mg/kg/d
[4] = andrographolide high-dose 180 mg/kg, intracolonical
[5] = andrographolide high-dose 180 mg/kg, intragastric
[6] = andrographolide low-dose 60 mg/kg, intracolonical
[7] = andrographolide low-dose 60 mg/kg, intragastric

Which “Body weight increase compared with the model control group” value ([1]; FIG. 1, treated groups) does the source give for `C=C1CC[C@@H]2[C@](C)(CO)[C@H](O)CC[C@@]2(C)[C@@H]1C/C=C1/C(=O)OC[C@H]1O` [Andrographolide] here?
The value was “increased faster than that in the model control group”.

What about the Body weight [1, 2] of the same compound?
The Body weight was 20.95 ± 1.09 g.

And the Colon weight [1, 2]?
Its Colon weight is 0.29 ± 0.09 g.

And the Body weight [1, 3]?
Its Body weight is 19.95 ± 2.05 g.

What about the Colon weight [1, 3] of the same compound?
Its Colon weight is 0.43 ± 0.12 g.

What about the Colon scores [1, 2] of the same compound?
The Colon scores was 1.8**.

And the Colon scores [1, 3]?
The Colon scores was 3.2.

And the Colon indices [1, 2]?
The Colon indices was 1.38 ± 0.46.

And the Colon indices [1, 3]?
Its Colon indices is 2.24 ± 0.90.

What about the “Intestinal elasticity compared with the model control group” value ([1]; treated groups, after 7 days) of the same compound?
Its value is “higher than that in the model control group”.

And the “Decrease rate of colon specific weight” value [1, 2]?
The value was 58.96%.

And the “Decrease rate of colon specific weight” value [1, 3]?
The value was 33.20%.

And the “DAI on the 7th day” value (DSS-induced UC mice; [4])?
The value was 1.36 ± 0.64.

And the “DAI on the 14th day” value (DSS-induced UC mice; [4])?
Its value is 1.35 ± 0.18.

And the “DAI on the 7th day” value (DSS-induced UC mice; [5])?
The value was 1.43 ± 0.38.

What about the “DAI on the 14th day” value (DSS-induced UC mice; [5]) of the same compound?
Its value is 1.64 ± 0.83.

And the “DAI on the 7th day” value (DSS-induced UC mice; [6])?
Its value is 1.67 ± 0.65.

And the “DAI on the 14th day” value (DSS-induced UC mice; [6])?
The value was 1.77 ± 0.95.

And the “DAI on the 7th day” value (DSS-induced UC mice; [7])?
Its value is 1.63 ± 0.99.

And the “DAI on the 14th day” value (DSS-induced UC mice; [7])?
Its value is 2.01 ± 0.80.

What about the “Toxicity and death in zebra fish” value (zebra fish) of the same compound?
The value was “no toxicity and death were found”.

— patent publication US9889093B2, “Application of andrographolide in the preparation of a pharmaceutical for treatment of inflammatory bowel disease, andrographolide enteric targeting micropellet, and method for preparation thereof” (TASLY PHARMACEUTICAL GROUP CO., LTD., priority 2013, dated 2018)
